Data on 4 compounds can be found in patent US11793880B2, “Conjugates of quaternized tubulysin compounds” (Seagen Inc., priority 2015, dated 2023).

Read-outs that look alike come from different tables or passages of the source.

In one assay the test system is Karpas299, ALCL. The experiment in a line: In vitro assays - tubulysin ADCs (cAC10, anti-CD30). Format: cell-based. The conditions noted are these: Table 4; cAC10 ADCs DAR 8, 96 h.
Another assay concerns L540cy, HL. On the procedure: (§1) In vitro assays. Cells cultured in log-phase growth were seeded for 24 h in 96-well plates containing 150 μL RPMI 1640 supplemented with 20% FBS. Serial dilutions of antibody-drug conjugates in cell culture media were prepared at 4× working concentrations; 50 μL of each dilution was added to the 96-well plates. […] After 96 h, growth inhibition was assessed by CellTiter-Glo® (Promega, Madison, WI) and luminescence was measured on a plate reader.
(§2) In vitro assays—tubulysin ADCs. ADCs were prepared by t Ell reduction of interchain disulfides to reveal 8-conjugatable cysteines/antibody that were alkylated through Michael addition with the maleimide-containing Drug Linker compounds. […] conjugates hearing quaternized tubulysin ethers with and without a PEG12 side-chain were compared to their tubulysin M analogs.
(§3) Several hydrophilic linker constructs incorporating quaternized tubulysin M were prepared and evaluated in vitro; the results are shown in Table 5. The data (IC50 values in ng/mL) indicate that Conjugates prepared from Drug Linker compounds having quaternized tubulysin M linked via a hydrophilic ValGlu dipeptide with (95) or without (91) a PEG12 side chain, or linked via a hydrophilic glucuronide (82) provide ADCs that are equipotent to the ValAla comparator (15).

Another assay relates to L428, MDR + HL. On the procedure:
as §1, §2, §3

Another assay deals with DEL/BVR, MDR + ALCL. On the procedure: as §1, §2, §3
Assay [1] relates to Karpas299, L540cy, L428, DEL, DEL/BVR cell lines. The experiment in a line: In vitro assays - tubulysin ADCs, statements across the cell line panel. To be noted: for potency relative to the ValAla comparator (15), in words: Table 5, cAC10 ADCs 8 drugs/mAb, quaternized tubulysin M. The class given is cell-based. On the procedure:
as §1, §2, §3

Assay [2] has as its system antigen-negative Hep3B hepatocellular carcinoma cells. To be noted: Table 5, cAC10 ADCs 8 drugs/mAb, MDPR-Linker-TubM. On the procedure:
as §1, §3

The test system of a further assay is DEL, ALCL. To be noted: Table 5; cAC10 ADCs 8 drugs/mAb, MDPR-Linker-TubM. On the procedure:
as §1, §2, §3

The mark [3] stands for this setting: Table 4, cAC10 ADCs DAR 8, 96 h.
Where [4] appears, read: Table 5, cAC10 ADCs 8 drugs/mAb, MDPR-Linker-TubM.

Method for Karpas299, ALCL: In vitro assays. Cells cultured in log-phase growth were seeded for 24 h in 96-well plates containing 150 μL RPMI 1640 supplemented with 20% FBS. Serial dilutions of antibody-drug conjugates in cell culture media were prepared at 4× working concentrations; 50 μL of each dilution was added to the 96-well plates. Following addition of ADC, cells were incubated with test articles for 4 d at 37° C. After 96 h, growth inhibition was assessed by CellTiter-Glo® (Promega, Madison, WI) and luminescence was measured on a plate reader.

Take `CCO[C@H](C[C@H](C(C)C)N(C)C(=O)[C@@H](NC(=O)[C@H]1CCCC[N+]1(C)Cc1ccc(O[C@@H]2O[C@H](C(=O)O)[C@@H](O)[C@H](O)[C@H]2O)c(NC(=O)CCNC(=O)[C@H](CN)N2C(=O)C=CC2=O)c1)[C@@H](C)CC)c1nc(C(=O)N[C@@H](Cc2ccccc2)C[C@H](C)C(=O)O)cs1` (stereo partly drawn) [Compound 57, (2R)-1-(3-(3-((S)-3-amino-2-(2,5-dioxo-2,5-dihydro-1H-pyrrol-1-yl)propanamido)propanamido)-4-(((2S,3R,4S,5S,6S)-6-carboxy-3,4,5-trihydroxytetrahydro-2H-pyran-2-yl)oxy)benzyl)-2-(((2S,3S)-1-(((1R,3R)-1-(4-(((2R,4S)-4-carboxy-1-phenylpentan-2-yl)carbamoyl)thiazol-2-yl)-1-ethoxy-4-methylpentan-3-yl)(methyl)amino)-3-methyl-1-oxopentan-2-yl)carbamoyl)-1-methylpiperidin-1-ium]: the “IC50, Karpas299, ALCL” value in the assay on Karpas299, ALCL came to 1 ng/mL. For the same compound, the “IC50, L540cy, HL” value with L540cy, HL (setting [3]) was 5 ng/mL. Moreover, the “IC50, L428, MDR + HL” value in the assay with L428, MDR + HL (setting [3]) is listed as 4 ng/mL. The “IC50, DEL/BVR, MDR + ALCL” value in the assay on DEL/BVR, MDR + ALCL (setting [3]) worked out at 5 ng/mL. Also, in assay [1] (Table 4, cAC10 conjugates 8 drug/Ab), the “conjugate potency, in words” value is given as “consistently more potent”.
On to `CC[C@H](C)[C@H](NC(=O)[C@H]1CCCC[N+]1(C)Cc1ccc(O[C@@H]2O[C@H](C(=O)O)[C@@H](O)[C@H](O)[C@H]2O)c(NC(=O)CCNC(=O)[C@H](CN)N2C(=O)C=CC2=O)c1)C(=O)N(C)[C@H](C[C@@H](OC(C)=O)c1nc(C(=O)N[C@@H](Cc2ccccc2)C[C@H](C)C(=O)O)cs1)C(C)C` (stereo partly drawn) [Compound 82, (2R)-2-(((2S,3S)-1-(((1R,3R)-1-acetoxy-1-(4-(((2R,4S)-4-carboxy-1-phenylpentan-2-yl)carbamoyl)thiazol-2-yl)-4-methylpentan-3-yl)(methyl)amino)-3-methyl-1-oxopentan-2-yl)carbamoyl)-1-(3-(3-((S)-3-amino-2-(2,5-dioxo-2,5-dihydro-1H-pyrrol-1-yl)propanamido)propanamido)-4-(((2S,3R,4S,5S,6S)-6-carboxy-3,4,5-trihydroxytetrahydro-2H-pyran-2-yl)oxy)benzyl)-1-methylpiperidin-1-ium], for which the “IC50, Hep3B CD30- HCC” value in assay [2] is given as above 1000 ng/mL. Also, the “IC50, Karpas299, ALCL” value in the assay on Karpas299, ALCL amounted to 0.6 ng/mL. Moreover, the “IC50, L540cy, HL” value with L540cy, HL (setting [3]) came to 4 ng/mL; in the assay with L540cy, HL (setting [4]) it was 1 ng/mL. Also, the “IC50, L428, MDR + HL” value with L428, MDR + HL (setting [3]) came out at 0.5 ng/mL; with L428, MDR + HL (setting [4]), 0.4 ng/mL. Further, the “IC50, DEL, ALCL” value in the assay on DEL, ALCL is on record as 0.3 ng/mL. The “IC50, DEL/BVR, MDR + ALCL” value with DEL/BVR, MDR + ALCL (setting [3]) is 3 ng/mL; with DEL/BVR, MDR + ALCL (setting [4]), 4 ng/mL.
Regarding `CC[C@H](C)[C@H](NC(=O)[C@H]1CCCC[N+]1(C)Cc1ccc(NC(=O)[C@H](CCC(=O)O)NC(=O)[C@@H](NC(=O)[C@H](CN)N2C(=O)C=CC2=O)C(C)C)cc1)C(=O)N(C)[C@H](C[C@@H](OC(C)=O)c1nc(C(=O)N[C@@H](Cc2ccccc2)C[C@H](C)C(=O)O)cs1)C(C)C` (stereo partly drawn) [Compound 91, (2R)-2-(((2S,3S)-1-(((1R,3R)-1-acetoxy-1-(4-(((2R,4S)-4-carboxy-1-phenylpentan-2-yl)carbamoyl)thiazol-2-yl)-4-methylpentan-3-yl)(methyl)amino)-3-methyl-1-oxopentan-2-yl)carbamoyl)-1-(4-((S)-2-((S)-2-((S)-3-amino-24 (2,5-dioxo-2,5-dihydro-1H-pyrrol-1-yl)propanamido)-3-methylbutanamido)-4-carboxybutanamido)benzyl)-1-methylpiperidin-1-ium], in assay [2], the “IC50, Hep3B CD30- HCC” value was above 1000 ng/mL. The “IC50, L540cy, HL” value with L540cy, HL (setting [4]) is on record as 1 ng/mL. For the same compound, in the assay on L428, MDR + HL (setting [4]), the “IC50, L428, MDR + HL” value is 0.3 ng/mL. The “IC50, DEL, ALCL” value in the assay with DEL, ALCL came to 0.1 ng/mL. In the assay on DEL/BVR, MDR + ALCL (setting [4]), the “IC50, DEL/BVR, MDR + ALCL” value is given as 2 ng/mL. The “potency relative to the ValAla comparator (15), in words” value in assay [1] is on record as “equipotent”.
Turning to `CC[C@H](C)[C@H](NC(=O)[C@H]1CCCC[N+]1(C)Cc1ccc(NC(=O)[C@H](CCC(=O)O)NC(=O)[C@@H](NC(=O)[C@H](CCCCNC(=O)CCOCCOCCOCCOCCOCCOCCOCCOCCOCCOCCOCCOC)NC(=O)[C@H](CN)N2C(=O)C=CC2=O)C(C)C)cc1)C(=O)N(C)[C@H](C[C@@H](OC(C)=O)c1nc(C(=O)N[C@@H](Cc2ccccc2)C[C@H](C)C(=O)O)cs1)C(C)C` (some centres unmarked) [Compound 95], the “IC50, Hep3B CD30- HCC” value in assay [2] is on record as above 1000 ng/mL. In the assay on L540cy, HL (setting [4]), the “IC50, L540cy, HL” value is 0.8 ng/mL. The “IC50, L428, MDR + HL” value in the assay on L428, MDR + HL (setting [4]) is 0.2 ng/mL. Further, the “IC50, DEL, ALCL” value in the assay with DEL, ALCL is 0.1 ng/mL. For the same compound, in the assay with DEL/BVR, MDR + ALCL (setting [4]), the “IC50, DEL/BVR, MDR + ALCL” value is listed as 2 ng/mL. Moreover, the “potency relative to the ValAla comparator (15), in words” value in assay [1] is reported as “equipotent”.
